Assay: Solubility in water (grams/100 ml) at 30, 60 and 90° C.
Assay type: physicochemical
Conditions: for Solubility in water: chloride anion

CCN(CC[n+]1ccc(C)cc1)c1ccc(N=Nc2ccc([N+](=O)[O-])cc2Cl)cc1 [Example 1, 4-nitro-2-chloroaniline N-2-(N'-ethylanilino)-ethyl-4-methylpyridinium chloride]
Solubility in water (30° C.): 2.5 grams/100 ml
Solubility in water (60° C.): 62 grams/100 ml
Solubility in water (90° C.): > 100 grams/100 ml
aqueous solubility compared with Basic Red 18:1 (both dyestuffs having a chloride anion): superior aqueous solubility

— patent US4217271A, “Basic azo dyestuffs containing a n-picolinium alkylene amino phenyl group” (Imperial Chemical Industries Limited, priority 1977, dated 1980)
